Consider eight molecules from ChEMBL document CHEMBL1201862, “PubChem BioAssay data set” (2004).

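Step 1: Grow cells in 96-well plates. Step 2: Expose to compound for 48 hours at 5 concentrations. Step 3: Interpolate endpoints linearly; if unreached, use highest concentration. GI50 marks 50% less growth.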 Activity calls are given as the source filed them. Cut-off read from the data, not from the text of the source: active = GI50 up to about 1.1 µM and inactive = higher.

What all share (test): NCI-60 cell line screen, 48 h
The subject of test [1] is M14.
Test [2] concerns MOLT-4.
In test [3] the test system is SK-MEL-28.
Test [4] deals with KM12.
Test [5] has as its system HOP-62.
The test system of test [6] is K562.
In test [7] the test system is UACC-257.
The subject of test [8] is BT-549.
For test [9], the system named is SK-MEL-2.
For test [10], the system named is CCRF-CEM.
The subject of test [11] is A549.
Test [12] has as its system OVCAR-4.
In test [13] the test system is IGROV-1.
The subject of test [14] is HCT-116.
Test [15] concerns RXF 393.
Test [16] has as its system SNB-19.
Test [17] concerns HL-60.
Test [18] deals with HT-29.
In test [19] the test system is OVCAR-8.
Test [20] concerns HOP-92.

Consider `O=C(c1cccs1)N(C(=S)OCCOc1ccccc1)c1ccccc1`, for which the GI50 is 17 µM (inactive) in test [1]; 27.4 µM (inactive) in [2]; 24.8 µM (inactive) in [3]; 26 µM (inactive) in test [4]; 28.2 µM (inactive) in test [5]; 36.1 µM (inactive) in test [6]. Also, the GI50 was 29.4 µM (inactive) in [7]; 20.8 µM (inactive) in test [8]; 21.3 µM (inactive) in test [9]; 27.6 µM (inactive) in test [10]; 28.1 µM (inactive) in [11]; 29.8 µM (inactive) in test [12]. Further, the GI50 in [13] is 25.4 µM (inactive); in test [14], 19.4 µM (inactive); in test [15], 23.6 µM (inactive); in test [16], 29.4 µM (inactive); in [17], 27.6 µM (inactive); in [18], 34 µM (inactive). Also, the GI50 is 25.5 µM (inactive) in [19] and 18.8 µM (inactive) in test [20].
Regarding `O=c1c2ccccc2sc2nc(CCl)nn12`, the GI50 in test [1] was 22 µM (inactive); in test [2], 97.5 µM (inactive); in test [3], 10.8 µM (inactive); in test [4], > 100 µM (inactive); in test [5], > 100 µM (inactive); in test [6] it was 2.32 µM (inactive). In addition, the GI50 in [7] is 14 µM (inactive); in test [8], 27 µM (inactive); in test [9], 48.4 µM (inactive); in test [10] it was > 100 µM (inactive); in test [11] it was 31 µM (inactive); in test [12], > 100 µM (inactive). Besides, the GI50 in test [13] is 17.2 µM (inactive); in test [14] it was 4.75 µM (inactive); in [15], 6.75 µM (inactive); in [16], 77.4 µM (inactive); in test [17] it was 14.5 µM (inactive); in test [18] it was 12.4 µM (inactive). Besides, the GI50 in test [19] is > 100 µM (inactive); in test [20], 3.62 µM (inactive).
Regarding `C[N+](C)(C)CC1Cc2ccccc2C1=O` (stereo not given), the GI50 was 2.75 µM (inactive) in test [1]; 1.71 µM (inactive) in test [2]; 5.58 µM (inactive) in [3]; > 10 µM (inactive) in test [4]; > 10 µM (inactive) in test [5]; 1.4 µM (inactive) in test [6]. The GI50 in [7] was > 10 µM (inactive); in [8], > 10 µM (inactive); in [9], > 9.14 µM (inactive); in test [10] it was 1.66 µM (inactive); in test [11], > 10 µM (inactive); in test [12], 2.72 µM (inactive). In addition, the GI50 was > 10 µM (inactive) in [13]; 1.72 µM (inactive) in [14]; > 9.31 µM (inactive) in [15]; > 10 µM (inactive) in test [16]; 1.56 µM (inactive) in [17]; 6.38 µM (inactive) in [18]. The GI50 was 1.89 µM (inactive) in test [19] and 3.91 µM (inactive) in [20].
Turning to `COc1cccc2c1C(=O)c1c(O)c3c(c(O)c1C2=O)C[C@@](O)(C(C)=O)C[C@@H]3OC1CC(N(C)C)C(O)C(C)O1` (stereo not given in full), the GI50 is 0.00439 µM (active) in test [1]; 0.00309 µM (active) in test [2]; 0.00516 µM (active) in test [3]; 0.00485 µM (active) in test [4]; 0.00344 µM (active) in [5]; 0.00318 µM (active) in [6]. The GI50 is 0.00555 µM (active) in [7]; 0.00114 µM (active) in [8]; 0.0798 µM (active) in test [9]; 0.00412 µM (active) in test [10]; 0.00617 µM (active) in [11]; 0.0306 µM (active) in test [12]. Besides, the GI50 is 0.00447 µM (active) in test [13]; 0.00169 µM (active) in [14]; 0.00681 µM (active) in test [15]; 0.00411 µM (active) in [16]; 0.00387 µM (active) in test [17]; 0.00356 µM (active) in [18]. The GI50 is 0.00405 µM (active) in test [19] and 0.084 µM (active) in test [20].
As to `OCCNC1c2cc(Cl)ccc2-c2c(Cl)cc(Cl)cc21` (stereo not given), the GI50 in [1] was 38.1 µM (inactive); in test [2], 22.1 µM (inactive); in [3], 92.3 µM (inactive); in test [4] it was 32.7 µM (inactive); in test [5] it was 41.2 µM (inactive); in test [6], 33 µM (inactive). In addition, the GI50 in test [7] is 31.3 µM (inactive); in test [8], > 100 µM (inactive); in test [9] it was 15.2 µM (inactive); in test [10], 23.2 µM (inactive); in test [11], 30 µM (inactive); in [12], 32.1 µM (inactive). Further, the GI50 in test [13] was 13.2 µM (inactive); in test [14] it was 26.5 µM (inactive); in test [15], 40.2 µM (inactive); in test [16], 39.4 µM (inactive); in [17] it was 25.6 µM (inactive); in test [18], 31.5 µM (inactive). The GI50 in test [19] was 28.6 µM (inactive); in [20] it was 20.3 µM (inactive).
As to `CCOC(=O)C(=O)C(=O)NN(C)C1=NCCN1`, the GI50 in test [1], in test [2], in [3], in [4], in [5] and in [6] was > 100 µM (inactive) in each case. The GI50 in [7], in test [8], in test [9], in test [10], in test [11] and in [12] was > 100 µM (inactive) in each case. The GI50 in test [13], in test [14], in test [15], in test [16], in [17] and in [18] was > 100 µM (inactive) throughout. In addition, the GI50 in [19] and in test [20] was > 100 µM (inactive) in each case.
For `Nc1ccc2c(c1)CN1C(=O)c3ccccc3C1=N2` [DANIQUIDONE], the GI50 is 104 µM (inactive) in [1]; 3.77 µM (inactive) in test [2]; > 119 µM (inactive) in test [3]; 50.7 µM (inactive) in [4]; 9.71 µM (inactive) in test [5]; 67.5 µM (inactive) in [6]. In addition, the GI50 was 96.6 µM (inactive) in test [7]; > 93.3 µM (inactive) in test [8]; > 79.8 µM (inactive) in [9]; 10.7 µM (inactive) in test [10]; 31 µM (inactive) in [11]; 91.8 µM (inactive) in test [12]. In addition, the GI50 in [13] was 34.2 µM (inactive); in test [14], 16.7 µM (inactive); in test [15], 34.4 µM (inactive); in [16], 29 µM (inactive); in [17], 8.3 µM (inactive); in test [18] it was 69.3 µM (inactive). In addition, the values for the GI50 in test [19] and in [20] were 22 µM (inactive) and 36.9 µM (inactive), respectively.
For `O=Nc1c(-c2c(O)[nH]c3ccccc23)[nH]c2ccccc12` [INDIRUBIN-3-MONOXIME], the GI50 in test [1] is 5.61 µM (inactive); in test [2], 4.15 µM (inactive); in [3] it was 6.9 µM (inactive); in [4] it was 0.0865 µM (active); in test [5] it was 7.23 µM (inactive); in [6] it was 2.67 µM (inactive). Also, the GI50 in [7] is 18.3 µM (inactive); in test [8], 8.11 µM (inactive); in [9], 1.91 µM (inactive); in test [10] it was 4.4 µM (inactive); in test [11], 3.8 µM (inactive); in test [12], 5.08 µM (inactive). Also, the GI50 in [13] was 2.67 µM (inactive); in [14], 2.52 µM (inactive); in [15], 1.93 µM (inactive); in test [16] it was 25.8 µM (inactive); in test [17] it was 2.72 µM (inactive); in test [18] it was 7.14 µM (inactive). Besides, the figures for the GI50 in test [19] and in [20] were 4.45 µM (inactive) and 8.77 µM (inactive), respectively.
